For 8 molecules, solubility results are on record in CN104497008A, “取代噁唑烷酮类化合物及其使用方法和用途” (priority 2014, dated 2015).

SMILES strings stand for the structures. Values after ≈ are worked out from the molar mass of the structure shown.

The data set in a line: Solubility test of the compounds. Format: physicochemical. The note with it: water, 37 ℃, 24 h shaking, 40 rpm, HPLC; read-out: compound solubility.

For orientation: solubility means the dissolved amount per volume that the medium holds.

As for `NC(=O)N1CCc2sc(N3C[C@H](CNC(=O)c4ccc(Cl)s4)OC3=O)cc2C1` [实施例1, (S)-2-(5-((5-氯噻吩-2-甲酰氨基)甲基)-2-氧代噁唑烷-3-基)-6,7-二氢噻吩并[3,2-c]吡啶-5(4H)-甲酰胺], the solubility at 24 h was determined as 240 µg/mL (≈ 544 µM).
The figure for `CC(=O)N1CCc2sc(N3C[C@H](CNC(=O)c4ccc(Cl)s4)OC3=O)cc2C1` [实施例2, (S)-N-((3-(5-乙酰基-4,5,6,7-四氢噻吩并[3,2-c]吡啶-2-基)-2-氧代噁唑烷-5-基)甲基)-5-氯噻吩-2-甲酰胺] is 110 µg/mL (≈ 250 µM); for `NC(=O)N1CCc2cc(N3C[C@H](CNC(=O)c4ccc(Cl)s4)OC3=O)sc2C1` [实施例3, (S)-2-(5-((5-氯噻吩-2-甲酰氨基)甲基)-2-氧代噁唑烷-3-基)-4,5-二氢噻吩并[2,3-c]吡啶-6(7H)-甲酰胺] it is 260 µg/mL (≈ 590 µM).
The figure for `CC(=O)N1CCc2cc(N3C[C@H](CNC(=O)c4ccc(Cl)s4)OC3=O)sc2C1` [实施例4, (S)-N-((3-(6-乙酰基-4,5,6,7-四氢噻吩并[2,3-c]吡啶-2-基)-2-氧代噁唑烷-5-基)甲基)-5-氯噻吩-2-甲酰胺] is 130 µg/mL (≈ 295 µM); for `CN1CCc2nc(N3C[C@H](CNC(=O)c4ccc(Cl)s4)OC3=O)sc2C1` [实施例5, (S)-5-氯-N-((3-(5-甲基-4,5,6,7-四氢噻唑[5,4-c]吡啶-2-基)-2-氧代噁唑烷-5-基)甲基)噻吩-2-甲酰胺] it is 230 µg/mL (≈ 557 µM).
Regarding `CN1CCc2cc(N3C[C@H](CNC(=O)c4ccc(Cl)s4)OC3=O)sc2C1` [实施例6], the solubility at 24 h was determined as 220 µg/mL (≈ 534 µM).
Turning to `O=C(NC[C@H]1CN(c2sc3ccccc3c2Cl)C(=O)O1)c1ccc(Cl)s1` [实施例7, (S)-5-氯-N-((3-(3-氯苯并[b]噻吩-2-基)-2-氧代噁唑烷-5-基)甲基)噻吩-2-甲酰胺], the solubility at 24 h stood at 80 µg/mL (≈ 187 µM).
`CN1CCc2nc(C(=O)NCC3COC(=O)N3C(=O)Nc3ccc(Cl)cn3)sc2C1` (centres unmarked) [实施例8, N-(5-氯吡啶-2-基)-4-((5-甲基-4,5,6,7-四氢噻唑并[5,4-c]吡啶-2-甲酰氨基)甲基)-2-氧代噁唑烷-3-甲酰胺]: the solubility at 24 h is 150 µg/mL (≈ 333 µM).
